{"source": "patent US20170190671A1", "about": "“BIS(ARYL)CATECHOL DERIVATIVES AS HERBICIDES” (E I DU PONT DE NEMOURS AND COMPANY, priority 2014, published 2017)", "experiment_in_all_cases": "Test C postemergence", "type_in_all_cases": "in vivo", "key": {"wild oat (Avena fatua)": {"tested_on": "wild oat (Avena fatua)", "conditions": "Avena fatua, post-emergence, Postemergence, scale 0 to 100, read-out: Plant response rating, Oat, Wild"}, "[1]": {"tested_on": "giant foxtail (Setaria faberii)", "conditions": "Setaria faberi, post-emergence, 336 h, Postemergence, scale 0 to 100, read-out: Plant response rating, Foxtail, Giant"}, "kochia (Kochia scoparia)": {"tested_on": "kochia (Kochia scoparia)", "conditions": "Bassia scoparia, post-emergence, Postemergence, scale 0 to 100, read-out: Plant response rating, Kochia"}, "[2]": {"tested_on": "chickweed (common chickweed, Stellaria media)", "conditions": "Stellaria media, post-emergence, Postemergence, scale 0 to 100, read-out: Plant response rating, Chickweed"}, "[3]": {"tested_on": "pigweed (Amaranthus retroflexus)", "conditions": "Amaranthus retroflexus, post-emergence, 336 h, Postemergence, scale 0 to 100, read-out: Plant response rating, Pigweed"}, "[4]": {"tested_on": "blackgrass (Alopecurus myosuroides)", "conditions": "Alopecurus myosuroides, post-emergence, 336 h, Postemergence, scale 0 to 100, read-out: Plant response rating, Blackgrass"}, "[5]": {"tested_on": "oilseed rape (Brassica napus)", "conditions": "Brassica napus, post-emergence, Postemergence, scale 0 to 100, read-out: Plant response rating, Oilseed Rape"}, "[6]": {"tested_on": "yellow nutsedge (Cyperus esculentus)", "conditions": "Cyperus, post-emergence, 336 h, Postemergence, scale 0 to 100, read-out: Plant response rating, Nutsedge, Yellow"}, "[7]": {"tested_on": "velvetleaf (Abutilon theophrasti)", "conditions": "Abutilon theophrasti, post-emergence, Postemergence, scale 0 to 100, read-out: Plant response rating, Velvetleaf"}, "[8]": {"tested_on": "winter wheat (Triticum aestivum)", "conditions": "Triticum aestivum, post-emergence, 336 h, Postemergence, scale 0 to 100, read-out: Plant response rating, Wheat"}, "[9]": {"tested_on": "johnsongrass (Sorghum halepense)", "conditions": "Sorghum halepense, post-emergence, 336 h, Postemergence, scale 0 to 100, read-out: Plant response rating, Johnsongrass"}, "[10]": {"tested_on": "morningglory (Ipomoea coccinea)", "conditions": "Ipomoea, post-emergence, 336 h, Postemergence, scale 0 to 100, read-out: Plant response rating, Morningglory"}, "[11]": {"tested_on": "Italian ryegrass (Lolium multiflorum)", "conditions": "Lolium multiflorum, post-emergence, 336 h, Postemergence, scale 0 to 100, read-out: Plant response rating, Ryegrass, Italian"}, "[12]": {"tested_on": "barnyardgrass (Echinochloa crus-galli)", "conditions": "Echinochloa crus-galli, post-emergence, Postemergence, scale 0 to 100, read-out: Plant response rating, Barnyardgrass"}, "[13]": {"tested_on": "large (Lg) crabgrass (Digitaria sanguinalis)", "conditions": "Digitaria sanguinalis, post-emergence, 336 h, Postemergence, scale 0 to 100, read-out: Plant response rating, Crabgrass, Large"}}, "data": [{"smiles": "Fc1ccc(F)c(Oc2ncc(Cl)cn2)c1Oc1ncc(Cl)cn1", "note": "[Compound 34, 2,2′-[(3,6-difluoro-1,2-phenylene)bis(oxy)]bis[5-chloropyrimidine]]", "values": [{"measurement": "pest or weed control at 31 g/ha", "setting": "wild oat (Avena fatua); 31 g ai/ha", "value": 0, "unit": "%"}, {"measurement": "pest or weed control at 62 g/ha", "setting": "wild oat (Avena fatua); 62 g ai/ha", "value": 5, "unit": "%"}, {"measurement": "pest or weed control at 125 g/ha", "setting": "wild oat (Avena fatua); 125 g ai/ha", "value": 10, "unit": "%"}, {"measurement": "pest or weed control at 16 g/ha", "setting": "[1]; 16 g ai/ha", "value": 5, "unit": "%"}, {"measurement": "pest or weed control at 31 g/ha", "setting": "[1]; 31 g ai/ha", "value": 5, "unit": "%"}, {"measurement": "pest or weed control at 62 g/ha", "setting": "[1]; 62 g ai/ha", "value": 5, "unit": "%"}, {"measurement": "pest or weed control at 125 g/ha", "setting": "[1]; 125 g ai/ha", "value": 25, "unit": "%"}, {"measurement": "pest or weed control at 16 g/ha", "setting": "kochia (Kochia scoparia); 16 g ai/ha", "value": 60, "unit": "%"}, {"measurement": "pest or weed control at 31 g/ha", "setting": "kochia (Kochia scoparia); 31 g ai/ha", "value": 60, "unit": "%"}, {"measurement": "pest or weed control at 62 g/ha", "setting": "kochia (Kochia scoparia); 62 g ai/ha", "value": 90, "unit": "%"}, {"measurement": "pest or weed control at 125 g/ha", "setting": "kochia (Kochia scoparia); 125 g ai/ha", "value": 90, "unit": "%"}, {"measurement": "pest or weed control at 16 g/ha", "setting": "[2]; 16 g ai/ha", "value": 50, "unit": "%"}, {"measurement": "pest or weed control at 31 g/ha", "setting": "[2]; 31 g ai/ha", "value": 50, "unit": "%"}, {"measurement": "pest or weed control at 62 g/ha", "setting": "[2]; 62 g ai/ha", "value": 80, "unit": "%"}, {"measurement": "pest or weed control at 125 g/ha", "setting": "[2]; 125 g ai/ha", "value": 95, "unit": "%"}, {"measurement": "pest or weed control at 31 g/ha", "setting": "[3]; 31 g ai/ha", "value": 80, "unit": "%"}, {"measurement": "pest or weed control at 62 g/ha", "setting": "[3]; 62 g ai/ha", "value": 90, "unit": "%"}, {"measurement": "pest or weed control at 125 g/ha", "setting": "[3]; 125 g ai/ha", "value": 90, "unit": "%"}, {"measurement": "pest or weed control at 16 g/ha", "setting": "[4]; 16 g ai/ha", "value": 0, "unit": "%"}, {"measurement": "pest or weed control at 31 g/ha", "setting": "[4]; 31 g ai/ha", "value": 0, "unit": "%"}, {"measurement": "pest or weed control at 62 g/ha", "setting": "[4]; 62 g ai/ha", "value": 0, "unit": "%"}, {"measurement": "pest or weed control at 125 g/ha", "setting": "[4]; 125 g ai/ha", "value": 5, "unit": "%"}, {"measurement": "plant injury at 31 g/ha", "setting": "[5]; 31 g ai/ha", "value": 50, "unit": "%"}, {"measurement": "plant injury at 62 g/ha", "setting": "[5]; 62 g ai/ha", "value": 70, "unit": "%"}, {"measurement": "plant injury at 125 g/ha", "setting": "[5]; 125 g ai/ha", "value": 70, "unit": "%"}, {"measurement": "pest or weed control at 31 g/ha", "setting": "[6]; 31 g ai/ha", "value": 10, "unit": "%"}, {"measurement": "pest or weed control at 62 g/ha", "setting": "[6]; 62 g ai/ha", "value": 10, "unit": "%"}, {"measurement": "pest or weed control at 125 g/ha", "setting": "[6]; 125 g ai/ha", "value": 10, "unit": "%"}, {"measurement": "pest or weed control at 31 g/ha", "setting": "[7]; 31 g ai/ha", "value": 60, "unit": "%"}, {"measurement": "pest or weed control at 62 g/ha", "setting": "[7]; 62 g ai/ha", "value": 60, "unit": "%"}, {"measurement": "pest or weed control at 125 g/ha", "setting": "[7]; 125 g ai/ha", "value": 65, "unit": "%"}, {"measurement": "plant injury at 31 g/ha", "setting": "[8]; 31 g ai/ha", "value": 0, "unit": "%"}, {"measurement": "plant injury at 62 g/ha", "setting": "[8]; 62 g ai/ha", "value": 0, "unit": "%"}, {"measurement": "plant injury at 125 g/ha", "setting": "[8]; 125 g ai/ha", "value": 0, "unit": "%"}, {"measurement": "pest or weed control at 16 g/ha", "setting": "[9]; 16 g ai/ha", "value": 5, "unit": "%"}, {"measurement": "pest or weed control at 31 g/ha", "setting": "[9]; 31 g ai/ha", "value": 5, "unit": "%"}, {"measurement": "pest or weed control at 62 g/ha", "setting": "[9]; 62 g ai/ha", "value": 10, "unit": "%"}, {"measurement": "pest or weed control at 125 g/ha", "setting": "[9]; 125 g ai/ha", "value": 10, "unit": "%"}, {"measurement": "pest or weed control at 31 g/ha", "setting": "[10]; 31 g ai/ha", "value": 95, "unit": "%"}, {"measurement": "pest or weed control at 62 g/ha", "setting": "[10]; 62 g ai/ha", "value": 90, "unit": "%"}, {"measurement": "pest or weed control at 125 g/ha", "setting": "[10]; 125 g ai/ha", "value": 95, "unit": "%"}, {"measurement": "pest or weed control at 31 g/ha", "setting": "[11]; 31 g ai/ha", "value": 0, "unit": "%"}, {"measurement": "pest or weed control at 62 g/ha", "setting": "[11]; 62 g ai/ha", "value": 0, "unit": "%"}, {"measurement": "pest or weed control at 125 g/ha", "setting": "[11]; 125 g ai/ha", "value": 0, "unit": "%"}, {"measurement": "pest or weed control at 16 g/ha", "setting": "[12]; 16 g ai/ha", "value": 5, "unit": "%"}, {"measurement": "pest or weed control at 31 g/ha", "setting": "[12]; 31 g ai/ha", "value": 5, "unit": "%"}, {"measurement": "pest or weed control at 62 g/ha", "setting": "[12]; 62 g ai/ha", "value": 10, "unit": "%"}, {"measurement": "pest or weed control at 125 g/ha", "setting": "[12]; 125 g ai/ha", "value": 10, "unit": "%"}, {"measurement": "pest or weed control at 16 g/ha", "setting": "[13]; 16 g ai/ha", "value": 0, "unit": "%"}, {"measurement": "pest or weed control at 31 g/ha", "setting": "[13]; 31 g ai/ha", "value": 0, "unit": "%"}, {"measurement": "pest or weed control at 62 g/ha", "setting": "[13]; 62 g ai/ha", "value": 5, "unit": "%"}, {"measurement": "pest or weed control at 125 g/ha", "setting": "[13]; 125 g ai/ha", "value": 5, "unit": "%"}]}]}
